Each structure is given as a SMILES string. Converted amounts (≈) assume the structure as drawn. Read-outs that look alike come from different tables or passages of the source.

One data set concerns Candida parapsilosis. Put plainly: Yeast susceptibility test, MIC (CLSI standard). The class given is cell-based. Particulars: tested range 38 μg/mL to 0.03 μg/mL, read out at 24 hours, average of three experiments. On the procedure: (§1) Briefly, susceptibility tests were set-up using a standardized methodology (CLSI […] standard). Drugs were diluted into RPMI-Mops medium (Yeast One Broth (Sensititer, product Y3462, Trek Diagnostic Systems, Cleveland, Ohio) Sensititer Lot number 151416SA-expiration date 2011-01). Two different strains of yeast were tested, the standardized evaluation/read out was performed at 24 hours after the start of each culture. The tests were repeated twice and all MIC (minimum inhibitory concentration) values are reported as an average of the three experiments.

The test system of data set [1] is Candida cruzei (ATCC strain 6258). Put plainly: Yeast susceptibility test, MIC (CLSI standard). Format: cell-based. Particulars: tested range 38 μg/mL to 0.03 μg/mL, read out at 24 hours, average of three experiments. On the procedure: as §1
For data set [2], the system named is Zygomycete (Clinical Lab isolate, MDACC). Put plainly: Extended mold testing, MIC (CLSI M38A). Format: cell-based. Particulars: H3 final use-formulation, range 75 μg/mL to 0.07 μg/mL, 48 hr. The source says:
(§2) To further determine the antifungal activity of the compounds in the new formulation systems we investigated the efficacy of the various agents against additional strains of mucor and Aspergillus (9/-16-9/20/2010) (The Rhizomucor was a clinical isolate from a patient isolate) and the Aspergillus fumigatus (ATCC strain 90906) used was a repeat from the previously described experiment. Again, the susceptibility tests were set-up using the standardized test method (CLSI M38A). The used drugs were provided in the described H3 final use-formulation that has been previously described. All drugs were diluted in RPMI-Mops medium (YeastOne, Sensititer Lot 151416SA, expiration date January 2011).
As before two different molds were tested with a standard read out at 48 hr: • Drug dilution range 75 μg/mL to 0.07 μg/mL. • Aspergillus fumigatus (ATCC strain 90906) Zygomycete (Clinical Lab isolate, MDACC)

Data set [3] has as its system Aspergillus fumigatus (Clinical Lab isolate). The experiment in a line: Mold susceptibility test, MIC. Particulars: tested range 75 μg/mL to 0.07 μg/mL, read out at 48 hrs. The class given is cell-based. How it is done:
(§3) Two hyaline molds were tested with a standard read out at 48 hrs:
(§4) Tested drug range: 75 μg/mL to 0.07 μg/mL
as §1

Data set [4] can be described thus: Maximum solubility of ITZA and azole analogues in solvents (HPLC). The note with it: for solubility at 30 min: organic solvent or mixture, thermodynamic from solid. Format: physicochemical. How it is done:
ITZA and its analogues were dissolved in various solvents incubated at 37° C. for 30 minutes, cooled down to room temperature, centrifuged at 14,000 rpm for 1 min. The supernatant was analyzed using HPLC to determine the maximum solubility of ITZA and its azole analogues.
In a first step the maximum ITZA solubility in various single solvents was determined. To this end, ITZA and its analogs were dissolved in various solvents, incubated at 37° C. for 30 minutes, cooled down to room temperature, centrifuged at 14,000 rpm for 1 min. The supernatant was analyzed using HPLC to determine the maximum solubility of the respective agent.
The solubility of ITZA was determined in several individual vehicles. Briefly, a known amount of ITZA drug, formulated as a powder (Sigma Inc., St Louis, Mo.), was equilibrated in the respective solvent at RT over 1-4 hours. An aliquot was removed, filtered, and prepared for HPLC to determine maximum solubility at room temperature. Based on the ITZA solubility in each vehicle, different solvents were mixed according to the cosolvency principle in an attempt to arrive at an enhanced stable solubility. […] The stock formulation was then diluted with a final diluent, i.e. NS or D5W or DlOW, to yield a stable use-formulation. The desired range of the final use-formulation was between 1 and 5 mg/mL, as it would result in a final volume that could be safely and conveniently infused intravascularly.
An excess of ITZA as a powder was added to a multitude of chemical solvents (Table 1) at RT. Each mixture was intermittently vortexed, placed in a dark environment and checked visually for up to 4 hours for evidence of solubilization. Following centrifugation to remove solid particles, small samples were withdrawn after consecutive time intervals and the ITZA concentration was determined by HPLC as described.

The test system of data set [5] is Aspergillus fumigatus (ATCC strain 90906). The experiment in a line: Mold susceptibility test, MIC (CLSI M38A). Format: cell-based. On the procedure: as §3, §4, §2
As before two different molds were tested with a standard read out at 48 hr: • Drug dilution range 75 μg/mL to 0.07 μg/mL. • Aspergillus fumigatus (ATCC strain 90906) Zygomycete (Clinical Lab isolate, MDACC) […]

Setting [6] is: solvent H3D (no benzyl alcohol), single determination, read-out: Azole solubility, [Drug] mg/mL.
Where [7] appears, read: solvent H3D (no benzyl alcohol), read-out: Azole solubility, Average mg/mL.
Setting [8] is: solvent H3G (no benzyl alcohol), single determination, read-out: Azole solubility, [Drug] mg/mL.
[9] abbreviates: solvent H3G (no benzyl alcohol), read-out: Azole solubility, Average mg/mL.
The mark [10] stands for this setting: solvent H3D (no benzyl alcohol), single determination.
Where [11] appears, read: solvent H3G (no benzyl alcohol), single determination.
Where [12] appears, read: extended mold testing (repeat), H3 final use-formulation, range 75 μg/mL to 0.07 μg/mL, 48 hr.
The mark [13] stands for this setting: tested range 75 μg/mL to 0.07 μg/mL, read out at 48 hrs, first experiment.
Where [14] appears, read: Aspergillus fumigatus, 48 h, read-out: MIC.

As for `OC(Cn1cncn1)(Cn1cncn1)c1ccc(F)cc1F` [FZSA, Fluconazole], the minimum inhibitory concentration (MIC) is 1.2 µg/mL (≈ 3.92 µM) in the data set with Candida parapsilosis (24 h, read-out: MIC); “all grew” in data set [1]; “all grew” in data set [2]; “all grew” in data set [3]; “all grew” in data set [5] (setting [12]); “all grew” in data set [5] (setting [13]). Further, the solubility at 30 min worked out at 38.6 mg/mL (≈ 126000 µM) in data set [4] (setting [6]), 36.1 mg/mL (≈ 118000 µM) in data set [4] (setting [7]), 28.4 mg/mL (≈ 92700 µM) in data set [4] (setting [8]) and 30.3 mg/mL (≈ 98900 µM) in data set [4] (setting [9]). For the same compound, the “Azole solubility, [Drug] mg/mL” value was determined as 33.5 mg/mL in data set [4] (setting [10]) and 32.2 mg/mL in data set [4] (setting [11]).
`CCC(C)n1ncn(-c2ccc(N3CCN(c4ccc(OCC5COC(Cn6cncn6)(c6ccc(Cl)cc6Cl)O5)cc4)CC3)cc2)c1=O` (stereo not drawn) [ITZA(ref 2), itraconazole]: the MIC against Candida parapsilosis stood at 0.15 µg/mL (≈ 0.213 µM); in data set [1], 0.3 µg/mL (≈ 0.425 µM); in data set [2], 2.5 µg/mL (≈ 3.54 µM); in data set [3] it was 0.3 µg/mL (≈ 0.425 µM); in data set [5] (setting [12]), 0.3 µg/mL (≈ 0.425 µM); in data set [5] (setting [13]), 0.6 µg/mL (≈ 0.85 µM).
Consider `CC(=O)N1CCN(c2ccc(OCC3COC(Cn4ccnc4)(c4ccc(Cl)cc4Cl)O3)cc2)CC1` (stereo not drawn) [KZSA, Ketoconazole], for which the MIC in the data set with Candida parapsilosis (24 h, read-out: MIC) came to 0.03 µg/mL (≈ 0.0565 µM); in data set [1] (Candida, ATCC6258, 24 h, read-out: MIC), 0.15 µg/mL (≈ 0.282 µM); in data set [2] (read-out: MIC), 38 µg/mL (≈ 71.5 µM); in data set [3] (setting [14]) it was 20 µg/mL (≈ 37.6 µM); in data set [5] (Aspergillus fumigatus, ATCC90906, 48 h, extended mold testing (repeat), H3 final use-formulation, range 75 μg/mL to 0.07 μg/mL, 48 hr, read-out: MIC) it was 10 µg/mL (≈ 18.8 µM); in data set [5] (Aspergillus fumigatus, ATCC90906, 48 h, tested range 75 μg/mL to 0.07 μg/mL, read out at 48 hrs, first experiment, read-out: MIC), 20 µg/mL (≈ 37.6 µM). For the same compound, the solubility at 30 min in data set [4] (setting [6]) was 15.4 mg/mL (≈ 29000 µM); in data set [4] (setting [7]), 15.3 mg/mL (≈ 28800 µM); in data set [4] (setting [8]), 14.8 mg/mL (≈ 27800 µM); in data set [4] (setting [9]), 14.9 mg/mL (≈ 28000 µM). Besides, the results for the “Azole solubility, [Drug] mg/mL” value in data set [4] (setting [10]) and in data set [4] (setting [11]) were 15.2 mg/mL and 15.1 mg/mL, respectively.
As for `COC(=O)Nc1nc2ccc(C(=O)c3ccccc3)cc2[nH]1` [MBZSA, Mebendazole], the minimum inhibitory concentration (MIC) result against Candida parapsilosis is “all grew”; in data set [1], “all grew (no drug effect)”; in data set [2] it was “all grew”; in data set [3] (setting [14]) it was 5 µg/mL (≈ 16.9 µM); in data set [5] (setting [12]), “all grew (no inhibition)”; in data set [5] (setting [13]), “all grew (no drug effect)”.

The values are drawn from patent US10307418B2, “Azole pharmaceutical formulations for parenteral administration and methods for preparing and using the same as treatment of diseases sensitive to azole compounds” (Platform Brightworks Two, Ltd., priority 2010, dated 2019).
